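Where inhibition never reached the appropriate level, the endpoint shown equals the highest concentration tested. Otherwise, values were interpolated linearly from a five-concentration, 48-hour dose response in 96-well plates. Here, GI50 denotes the concentration required for 50% inhibition of growth. TGI: total growth inhibition.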
Key:
Experiment in all cases: NCI tumour cell line growth inhibition, 48 h
[1] = tested on: T-47D breast
[2] = tested on: MDA-MB-435
[3] = tested on: OVCAR-5 ovarian
[4] = tested on: U251 CNS
[5] = tested on: CCRF-CEM leukemia
[6] = tested on: HCT-15 colon
[7] = tested on: UACC-257 melanoma
[8] = tested on: PC-3 prostate
[9] = tested on: SF-539 CNS
[10] = tested on: CAKI-1 renal
[11] = tested on: HOP-92 NSCLC
[12] = tested on: SF-268 CNS
[13] = tested on: DU-145 prostate
[14] = tested on: NCI-H23 lung
[15] = tested on: MOLT-4 leukemia
[16] = tested on: A498 renal
[17] = tested on: HT29 colon
[18] = tested on: HCC-2998 colon
[19] = tested on: SF-295 CNS
[20] = tested on: IGROV1 ovarian
[21] = tested on: NCI/ADR-RES ovarian
[22] = tested on: RPMI-8226 leukemia
[23] = tested on: SK-MEL-5 melanoma
[24] = tested on: OVCAR-4 ovarian
[25] = tested on: HS 578T breast
[26] = tested on: MDA-MB-231 breast
[27] = tested on: SN12C renal
[28] = tested on: M14 melanoma
[29] = tested on: UACC-62 melanoma
[30] = tested on: TK-10 renal
[31] = tested on: SK-MEL-28 melanoma
[32] = tested on: ACHN renal
[33] = tested on: KM12 colon
[34] = tested on: HCT-116 colon
[35] = tested on: 786-0 renal
[36] = tested on: OVCAR-8 ovarian
[37] = tested on: SK-MEL-2 melanoma
[38] = tested on: NCI-H460 lung
[39] = tested on: SK-OV-3 ovarian
[40] = tested on: SW-620 colon
[41] = tested on: BT-549 breast
[42] = tested on: RXF 393 renal
[43] = tested on: OVCAR-3 ovarian
[44] = tested on: HOP-62 NSCLC
[45] = tested on: LOX IMVI melanoma
[46] = tested on: COLO 205 colon
[47] = tested on: MALME-3M melanoma
[48] = tested on: MCF7 breast
[49] = tested on: SNB-19 CNS
[50] = tested on: NCI-H522 lung
[51] = tested on: EKVX NSCLC
[52] = tested on: A549 NSCLC
[53] = tested on: K-562 leukemia
[54] = tested on: UO-31 renal
[55] = tested on: NCI-H226 lung

C=C(C)[C@@H]1CCC[C@]2(C(=O)O)CC[C@]3(C)[C@@H](CC[C@@H]4[C@@]5(C)C/C(=C/c6ccncc6)C(=O)C(C)(C)[C@@H]5CC[C@]43C)[C@@H]12 was tested. Which GI50 [1] did it give?
Its GI50 is 3.98 µM.

And the TGI [1]?
The TGI was greater than 100 µM.

What about the GI50 [2] of the same compound?
The GI50 was 2.6 µM.

What about the TGI [2] of the same compound?
Its TGI is 6.88 µM.

And the GI50 [3]?
The GI50 was 2.52 µM.

What about the TGI [3] of the same compound?
Its TGI is 11.9 µM.

What about the GI50 [4] of the same compound?
Its GI50 is 2.14 µM.

What about the TGI [4] of the same compound?
Its TGI is 7.38 µM.

And the GI50 [5]?
The GI50 was 3.16 µM.

What about the TGI [5] of the same compound?
The TGI was greater than 100 µM.

What about the GI50 [6] of the same compound?
Its GI50 is 1.85 µM.

What about the TGI [6] of the same compound?
Its TGI is 4.31 µM.

What about the GI50 [7] of the same compound?
The GI50 was 3 µM.

And the TGI [7]?
Its TGI is 13.8 µM.

What about the GI50 [8] of the same compound?
The GI50 was 2.39 µM.

And the TGI [8]?
Its TGI is 20.3 µM.

And the GI50 [9]?
Its GI50 is 2.7 µM.

What about the TGI [9] of the same compound?
The TGI was 11.9 µM.

What about the GI50 [10] of the same compound?
The GI50 was 3.34 µM.

What about the TGI [10] of the same compound?
The TGI was 13.9 µM.

And the GI50 [11]?
The GI50 was 1.71 µM.

And the TGI [11]?
Its TGI is 7.19 µM.

And the GI50 [12]?
Its GI50 is 3.81 µM.

What about the TGI [12] of the same compound?
Its TGI is 91 µM.

And the GI50 [13]?
The GI50 was 4.03 µM.

What about the TGI [13] of the same compound?
The TGI was 45.1 µM.

What about the GI50 [14] of the same compound?
The GI50 was 3.33 µM.

What about the TGI [14] of the same compound?
The TGI was 12.9 µM.

What about the GI50 [15] of the same compound?
The GI50 was 2.07 µM.

What about the TGI [15] of the same compound?
The TGI was greater than 100 µM.

And the GI50 [16]?
The GI50 was 1.62 µM.

And the TGI [16]?
Its TGI is 5.01 µM.

And the GI50 [17]?
The GI50 was 2.69 µM.

What about the TGI [17] of the same compound?
The TGI was 9.5 µM.

And the GI50 [18]?
Its GI50 is 1.94 µM.

What about the TGI [18] of the same compound?
The TGI was 4.29 µM.

And the GI50 [19]?
Its GI50 is 2.04 µM.

What about the TGI [19] of the same compound?
Its TGI is 6.63 µM.

And the GI50 [20]?
The GI50 was 3.02 µM.

And the TGI [20]?
The TGI was 9.31 µM.

And the GI50 [21]?
Its GI50 is 3.99 µM.

And the TGI [21]?
Its TGI is greater than 100 µM.

What about the GI50 [22] of the same compound?
Its GI50 is 1.8 µM.

What about the TGI [22] of the same compound?
The TGI was 7.5 µM.

What about the GI50 [23] of the same compound?
Its GI50 is 1.96 µM.

And the TGI [23]?
Its TGI is 4.51 µM.

And the GI50 [24]?
Its GI50 is 4.31 µM.

What about the TGI [24] of the same compound?
The TGI was 67.4 µM.

And the GI50 [25]?
The GI50 was 19.4 µM.

What about the TGI [25] of the same compound?
Its TGI is greater than 100 µM.

And the GI50 [26]?
The GI50 was 3.05 µM.

What about the TGI [26] of the same compound?
The TGI was 24.3 µM.

What about the GI50 [27] of the same compound?
Its GI50 is 3.71 µM.

And the TGI [27]?
Its TGI is greater than 100 µM.

What about the GI50 [28] of the same compound?
Its GI50 is 2.24 µM.

And the TGI [28]?
Its TGI is 5.85 µM.

And the GI50 [29]?
Its GI50 is 2.05 µM.

What about the TGI [29] of the same compound?
Its TGI is 5.68 µM.

What about the GI50 [30] of the same compound?
The GI50 was 3.6 µM.

And the TGI [30]?
Its TGI is 29.4 µM.

What about the GI50 [31] of the same compound?
Its GI50 is 2.1 µM.

What about the TGI [31] of the same compound?
The TGI was 4.58 µM.

And the GI50 [32]?
The GI50 was 2.84 µM.

What about the TGI [32] of the same compound?
Its TGI is 11 µM.

What about the GI50 [33] of the same compound?
The GI50 was 1.8 µM.

And the TGI [33]?
Its TGI is 3.87 µM.

And the GI50 [34]?
Its GI50 is 1.36 µM.

And the TGI [34]?
The TGI was 2.8 µM.

What about the GI50 [35] of the same compound?
Its GI50 is 2.24 µM.

What about the TGI [35] of the same compound?
The TGI was 6.23 µM.

What about the GI50 [36] of the same compound?
Its GI50 is 3.07 µM.

What about the TGI [36] of the same compound?
The TGI was greater than 100 µM.

What about the GI50 [37] of the same compound?
Its GI50 is 2.59 µM.

And the TGI [37]?
Its TGI is 6.72 µM.

And the GI50 [38]?
Its GI50 is 1.87 µM.

What about the TGI [38] of the same compound?
Its TGI is 4.45 µM.

What about the GI50 [39] of the same compound?
The GI50 was 4.91 µM.

And the TGI [39]?
Its TGI is 34.3 µM.

What about the GI50 [40] of the same compound?
The GI50 was 3.14 µM.

What about the TGI [40] of the same compound?
The TGI was 9.6 µM.

And the GI50 [41]?
The GI50 was 2.1 µM.

What about the TGI [41] of the same compound?
Its TGI is 6.21 µM.

What about the GI50 [42] of the same compound?
Its GI50 is 2.09 µM.

What about the TGI [42] of the same compound?
The TGI was 4.47 µM.

And the GI50 [43]?
The GI50 was 1.89 µM.

What about the TGI [43] of the same compound?
Its TGI is 3.85 µM.

What about the GI50 [44] of the same compound?
Its GI50 is 2.78 µM.

What about the TGI [44] of the same compound?
Its TGI is 8.28 µM.

What about the GI50 [45] of the same compound?
The GI50 was 1.84 µM.

And the TGI [45]?
The TGI was 3.5 µM.

And the GI50 [46]?
Its GI50 is 1.64 µM.

And the TGI [46]?
Its TGI is 3.25 µM.

What about the GI50 [47] of the same compound?
The GI50 was 3.46 µM.

And the TGI [47]?
The TGI was 23.2 µM.

What about the GI50 [48] of the same compound?
Its GI50 is 2.77 µM.

And the TGI [48]?
Its TGI is 28.5 µM.

What about the GI50 [49] of the same compound?
Its GI50 is 3.69 µM.

And the TGI [49]?
Its TGI is 17.1 µM.

And the GI50 [50]?
Its GI50 is 2.74 µM.

What about the TGI [50] of the same compound?
The TGI was 9.14 µM.

And the GI50 [51]?
Its GI50 is 3.2 µM.

And the TGI [51]?
Its TGI is 46.3 µM.

What about the GI50 [52] of the same compound?
Its GI50 is 1.72 µM.

And the TGI [52]?
Its TGI is 5.26 µM.

What about the GI50 [53] of the same compound?
Its GI50 is 3.3 µM.

What about the TGI [53] of the same compound?
The TGI was greater than 100 µM.

What about the GI50 [54] of the same compound?
The GI50 was 1.74 µM.

And the TGI [54]?
Its TGI is 4.65 µM.

What about the GI50 [55] of the same compound?
Its GI50 is 4.66 µM.

And the TGI [55]?
The TGI was 53.4 µM.

Source: PubChem BioAssay (NCI)
